# Source: US10662183B2, “Inhibitors of myocardin-related transcription factor and serum response factor (MRTF/SRF)-mediated gene transcription and methods for use of the same” (THE REGENTS OF THE UNIVERSITY OF MICHIGAN, priority 2014, dated 2020)
# Test system: SRE.L-firefly luciferase reporter (Rho/MKL1 pathway) in PC-3 prostate cancer cells
# Experiment: SRE.L-luciferase reporter assay
# Assay type: cell-based
# Details: 19 h, PC-3 cells transfected with Gα12Q231L, SRE.L and pRL-TK reporters; compound 19 hrs
# Method: Seed PC-3 prostate cancer cells (40,000 cells/well) were grown in 96-well plates in 10% FBS containing DMEM medium. Cells were transiently transfected with the Ga12QL activator of the Rho/MKL1 pathway, along with the SRE.L-firefly luciferase reporter construct for 6 hours. Additionally, cells were co-transfected with the TK-Renilla luciferase reporter as an indicator of non-specific compound effects. Various concentrations of the compounds disclosed herein were added to the 96-well plates. Plates were incubated for 19 hours at 37° C. and 5% C02 in 0.5% FBS containing DMEM medium. Cells were lysed with IX Passive Lysis Buffer (Promega). Plates were incubated for 30 minutes at room temperature. Luminescence counts were read with a Victor2 (Perkin-Elmer) plate reader.
# One hour prior to cell lysis for the dual luciferase assay, 10 μl: per well of WST1 reagent (Roche) was added to the 96-well plates. Plates were incubated for 1 hour at 37° C. and 5% CO2. Cell viability was measured by WST1 absorbance at 450 nm with a Victor2 (Perkin-Elmer) plate reader.
# Biological activity of the compounds disclosed herein were assessed in the SRE.L luciferase reporter assay. PC-3 prostate cancer cells were co-transfected with 2 ng of the Gα12Q231L expression plasmid along with 50 ng of the SRE.L and 7 ng of the pRL-TK luciferase reporter plasmids, as described in the Materials and Methods section. Cells were treated with 0 (vehicle, DMSO alone), 1, 3, 10, 30, and 100 μM of a compound disclosed herein for 19 hrs after transfection before lysis. Luminescence was determined as described in the Materials and Methods section. Just before cell lysis, the viability of the cells was measured using the WST-1 cell proliferation reagent as described in the Materials and Methods section. Data are expressed as percentage of inhibition (DMSO alone=0%). The experiments were performed three separate times to achieve n=3 in triplicate.
row,SMILES,IC50 [nM]
1,"CCOC(=O)NC1CC(C(=O)Nc2ccc(Cl)cc2)CN(C(=O)c2cccc(-c3ccco3)c2)C1 (stereo not drawn) [Example E-058, ethyl (5-((4-chlorophenyl)carbamoyl)-1-(3-(furan-2-yl)benzoyl)piperidin-3-yl)carbamate]",15000
2,"O=C(c1cccc(-c2ccco2)c1)N1CC(COc2ccc(Cl)cc2)CC(F)(F)C1 (stereo not drawn) [Example E-059, (5-((4-chlorophenoxy)methyl)-3,3-difluoropiperidin-1-yl) (3-(furan-2-yl)phenyl)methanone]",31000
3,"O=C(c1cccc(-c2ccco2)c1)N1CCCC(NS(=O)(=O)c2ccc(Cl)cc2)C1 (stereo not drawn) [Example E-062, 4-chloro-N-(1-(3-(furan-2-yl)benzoyl)piperidin-3-yl)benzenesulfonamide]",21000
4,"O=C1CC(C(=O)Nc2ccc(Cl)cc2)CN(C(=O)c2cccc(-c3ccco3)c2)C1 (stereo not drawn) [Example E-063, N-(4-chlorophenyl)-1-(3-(furan-2-yl)benzoyl)-5-oxopiperidine-3-carboxamide]",15000
5,"CN(C)C1CC(C(=O)Nc2ccc(Cl)cc2)CN(C(=O)c2cccc(-c3ccco3)c2)C1 (stereo not drawn) [Example E-064, N-(4-chlorophenyl)-5-(dimethylamino)-1-(3-(furan-2-yl)benzoyl)piperidine-3-carboxamide]",6900
6,"O=C(NC1CCCN(C(=O)c2cccc(-c3ccco3)c2)C1)c1ccc(Cl)cc1 (stereo not drawn) [Example E-065, 4-chloro-N-(1-(3-(furan-2-yl)benzoyl)piperidin-3-yl)benzamide]",13000
7,"O=C(c1cccc(-c2ccco2)c1)N1CCCC(COc2ccc(Cl)cc2)C1 (stereo not drawn) [Example E-066, (3-((4-chlorophenoxy)methyl)piperidin-1-yl)(3-(furan-2-yl)phenyl)methanone]",2300
8,"O=C(Nc1ccc(Cl)cc1)C1CN(C(=O)c2cccc(-n3cccn3)c2)CC(F)(F)C1 (stereo not drawn) [Example E-067, 1-(3-(1H-pyrazol-1-yl)benzoyl)-N-(4-chlorophenyl)-5,5-difluoropiperidine-3-carboxamide]",7000
9,"O=C(Nc1ccc(Cl)cc1)C1CN(C(=O)c2cccc(-c3ccncc3)c2)CC(F)(F)C1 (stereo not drawn) [Example E-068, N-(4-chlorophenyl)-5,5-difluoro-1-(3-(pyridin-4-yl)benzoyl) piperidine-3-carboxamide]",780
10,"Cc1oc(-c2ccccc2)nc1C(=O)N1CCCC(C(=O)Nc2ccc(Cl)cc2)C1 (stereo not drawn) [Example E-069, N-(4-chlorophenyl)-1-(5-methyl-2-phenyloxazole-4-carbonyl)piperidine-3-carboxamide]",1800
11,"O=C(Nc1ccc(Cl)cc1)C1CN(C(=O)Cc2nc3ccccc3[nH]2)CC(F)(F)C1 (stereo not drawn) [Example E-070, 1-(2-(1H-benzo[d]imidazol-2-yl)acetyl)-N-(4-chlorophenyl)-5,5-difluoropiperidine-3-carboxamide]",9100
12,"O=C(Nc1ccc(Cl)cc1)C1CCCN(C(=O)Cc2cc3ccccc3o2)C1 (stereo not drawn) [Example E-071, 1-(2-(benzofuran-2-yl)acetyl)-N-(4-chlorophenyl)piperidine-3-carboxamide]",12000
13,"Cc1nc(-c2ccccc2)sc1C(=O)N1CCCC(C(=O)Nc2ccc(Cl)cc2)C1 (stereo not drawn) [Example E-072, N-(4-chlorophenyl)-1-(4-methyl-2-phenylthiazole-5-carbonyl)piperidine-3-carboxamide]",84
14,"O=C(Nc1ccc(Cl)cc1)C1CCCN(C(=O)c2csc(-c3ccccc3)n2)C1 (stereo not drawn) [Example E-073, N-(4-chlorophenyl)-1-(2-phenylthiazole-4-carbonyl)piperidine-3-carboxamide]",450
15,"O=C(Nc1ccc(Cl)cc1)C1CCCN(C(=O)c2ccc3scnc3c2)C1 (stereo not drawn) [Example E-074, 1-(benzo[d]thiazole-5-carbonyl)-N-(4-chlorophenyl)piperidine-3-carboxamide]",> 100000
16,"O=C(Nc1ccc(Cl)cc1)C1CN(C(=O)c2nc3ccccc3[nH]2)CC(F)(F)C1 (stereo not drawn) [Example E-075, 1-(1H-benzo[d]imidazole-2-carbonyl)-N-(4-chlorophenyl)-5,5-difluoropiperidine-3-carboxamide]",680
17,"O=C(Nc1ccc(Cl)cc1)C1CN(C(=O)c2ccc3cc[nH]c3c2)CC(F)(F)C1 (stereo not drawn) [Example E-076, N-(4-chlorophenyl)-5,5-difluoro-1-(1H-indole-6-carbonyl)piperidine-3-carboxamide]",1600
18,"CC(C)(C(=O)N1CCCC(C(=O)Nc2ccc(Cl)cc2)C1)c1csc(-c2ccc(F)cc2)n1 (stereo not drawn) [Example E-077, N-(4-chlorophenyl)-1-(2-(2-(4-fluorophenyl)thiazol-4-yl)-2-methylpropanoyl)piperidine-3-carboxamide]",810

row,SMILES,IC50 [nM]
1,"O=C(Nc1ccc(Cl)cc1)C1CCCN(C(=O)Cc2csc(-c3ccc(F)cc3)n2)C1 (stereo not drawn) [Example E-078, N-(4-chlorophenyl)-1-(2-(2-(4-fluorophenyl)thiazol-4-yl)acetyl)piperidine-3-carboxamide]",1000
2,"O=C(Nc1ccc(Cl)cc1)C1CCCN(C(=O)c2cc3ccc(F)cc3[nH]2)C1 (stereo not drawn) [Example E-079, N-(4-chlorophenyl)-1-(6-fluoro-1H-indole-2-carbonyl)piperidine-3-carboxamide]",920
3,"O=C(Nc1ccc(Cl)cc1)C1CCCN(C(=O)c2cc3ccccc3[nH]2)C1 (stereo not drawn) [Example E-080, N-(4-chlorophenyl)-1-(1H-indole-2-carbonyl)piperidine-3-carboxamide]",310
4,"COc1ccc2[nH]c(C(=O)N3CCCC(C(=O)Nc4ccc(Cl)cc4)C3)cc2c1 (stereo not drawn) [Example E-081, N-(4-chlorophenyl)-1-(5-methoxy-1H-indole-2-carbonyl)piperidine-3-carboxamide]",260
5,"O=C(Nc1ccc(Cl)cc1)C1CCCN(C(=O)c2ccc3[nH]ncc3c2)C1 (stereo not drawn) [Example E-082, N-(4-chlorophenyl)-1-(1H-indazole-5-carbonyl)piperidine-3-carboxamide]",370
6,"O=C(Nc1ccc(Cl)cc1)C1CCCN(C(=O)CCc2c[nH]c3ccccc23)C1 (stereo not drawn) [Example E-083, 1-(3-(1H-indol-3-yl)propanoyl)-N-(4-chlorophenyl) piperidine-3-carboxamide]",670
7,"O=C(Nc1ccc(Cl)cc1)C1CCCN(C(=O)Cc2c[nH]c3ccccc23)C1 (stereo not drawn) [Example E-084, 1-(2-(1H-indol-3-yl)acetyl)-N-(4-chlorophenyl)piperidine-3-carboxamide]",390
8,"O=C(Nc1ccc(Cl)cc1)C1CCCN(C(=O)c2cccc3[nH]ncc23)C1 (stereo not drawn) [Example E-085, N-(4-chlorophenyl)-1-(1H-indazole-4-carbonyl)piperidine-3-carboxamide]",310
9,"O=C(Nc1ccc(Cl)cc1)C1CCCN(C(=O)c2ccc3cc[nH]c3c2)C1 (stereo not drawn) [Example E-086, N-(4-chlorophenyl)-1-(1H-indole-6-carbonyl)piperidine-3-carboxamide]",97
10,"O=C(Nc1ccc(Cl)cc1)C1CCCN(C(=O)c2ccc3[nH]ccc3c2)C1 (stereo not drawn) [Example E-087, N-(4-chlorophenyl)-1-(1H-indole-5-carbonyl)piperidine-3-carboxamide]",130
11,"O=C(Nc1ccc(Cl)cc1)C1CCCN(C(=O)c2n[nH]c3ccccc23)C1 (stereo not drawn) [Example E-088, N-(4-chlorophenyl)-1-(1H-indazole-3-carbonyl)piperidine-3-carboxamide]",1500
12,"O=C(Nc1ccc(Cl)cc1)C1CCCN(C(=O)c2nc3ccccc3[nH]2)C1 (stereo not drawn) [Example E-089, 1-(1H-benzo[d]imidazole-2-carbonyl)-N-(4-chlorophenyl)piperidine-3-carboxamide]",120
13,"O=C(Nc1ccc(Cl)cc1)C1CCCN(C(=O)c2ccccc2-n2cccn2)C1 (stereo not drawn) [Example E-090, 1-(2-(1H-pyrazol-1-yl)benzoyl)-N-(4-chlorophenyl) piperidine-3-carboxamide]",240
14,"O=C(Nc1ccc(Cl)cc1)C1CCCN(C(=O)c2ccccc2-n2ccnc2)C1 (stereo not drawn) [Example E-091, 1-(2-(1H-imidazol-1-yl)benzoyl)-N-(4-chlorophenyl) piperidine-3-carboxamide]",4100
15,"O=C(Nc1ccc(Cl)cc1)C1CCCN(C(=O)c2ccccc2-c2ccco2)C1 (stereo not drawn) [Example E-092, N-(4-chlorophenyl)-1-(2-(furan-2-yl)benzoyl)piperidine-3-carboxamide]",710
16,"O=C(Nc1ccc(Cl)cc1)C1CCCN(C(=O)c2ccc3cn[nH]c3c2)C1 (stereo not drawn) [Example E-093, N-(4-chlorophenyl)-1-(1H-indazole-6-carbonyl)piperidine-3-carboxamide]",490
17,"O=C(Nc1ccc(Cl)cc1)C1CCCN(C(=O)c2ccc3occc3c2)C1 (stereo not drawn) [Example E-094, 1-(benzofuran-5-carbonyl)-N-(4-chlorophenyl)piperidine-3-carboxamide]",460
18,"CS(=O)(=O)c1ccc(NC(=O)C2CCCN(C(=O)c3cccc(-c4ccco4)c3)C2)cc1 (stereo not drawn) [Example E-095, 1-(3-(furan-2-yl)benzoyl)-N-(4-(methylsulfonyl)phenyl) piperidine-3-carboxamide]",5500
